In ChEMBL document CHEMBL1141416, “Discovery of a potent and selective prostaglandin D2 receptor antagonist, [(3R)-4-(4-chloro-benzyl)-7-fluoro-5-(methylsulfonyl)-1,2,3,4-tetrahydrocyclopenta[b]indol-3-yl]-acetic acid (MK-0524)” (J Med Chem, 2007):
pIC50, pKi: −log10 of the molar value.

How the values were obtained:
[1] = target: T1, Prostaglandin D2 receptor (Homo sapiens, UniProt Q13258); assay: Activity at human DP receptor in washed platelets assessed as inhibition of PGD2-induced cAMP accumulation; type: functional
T1 sequence (Q13258 whole entry): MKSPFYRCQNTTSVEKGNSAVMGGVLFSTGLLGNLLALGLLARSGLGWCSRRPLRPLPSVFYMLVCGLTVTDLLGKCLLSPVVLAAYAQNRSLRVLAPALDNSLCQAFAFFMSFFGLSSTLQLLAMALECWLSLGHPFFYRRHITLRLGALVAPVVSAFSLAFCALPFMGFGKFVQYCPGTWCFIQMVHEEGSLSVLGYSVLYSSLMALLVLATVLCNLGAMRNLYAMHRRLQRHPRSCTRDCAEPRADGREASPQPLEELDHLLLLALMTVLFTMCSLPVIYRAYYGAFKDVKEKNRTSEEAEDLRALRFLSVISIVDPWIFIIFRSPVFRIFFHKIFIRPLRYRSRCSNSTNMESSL

[2] = target: T1, Prostaglandin D2 receptor; assay: Binding affinity to human DP receptor expressed in HEK293 cells; type: cell-based
[3] = Metabolic stability in rat hepatocytes after 2 hrs at 50 uM; type: ADME, cell-based, Hepatocyte; details: read-out: Stability
[4] = target: Prostacyclin receptor (Homo sapiens, UniProt P43119); assay: Binding affinity to human IP receptor expressed in HEK293 cells; type: cell-based
[5] = target: T2, Prostaglandin E2 receptor EP3 subtype (Homo sapiens, UniProt P43115); assay: Binding affinity to human EP3 receptor expressed in HEK293 cells; type: cell-based
T2 sequence (P43115 whole entry): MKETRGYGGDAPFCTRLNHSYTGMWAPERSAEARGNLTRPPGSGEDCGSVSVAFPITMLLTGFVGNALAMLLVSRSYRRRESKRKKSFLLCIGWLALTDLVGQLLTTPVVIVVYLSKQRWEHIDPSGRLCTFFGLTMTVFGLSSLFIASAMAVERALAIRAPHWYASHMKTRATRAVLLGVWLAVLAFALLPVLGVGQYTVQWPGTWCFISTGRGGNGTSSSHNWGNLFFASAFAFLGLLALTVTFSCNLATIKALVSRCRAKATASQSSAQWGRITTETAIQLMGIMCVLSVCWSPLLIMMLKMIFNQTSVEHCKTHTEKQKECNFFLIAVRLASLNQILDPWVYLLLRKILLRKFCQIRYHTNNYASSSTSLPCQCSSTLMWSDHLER

[6] = target: Prostaglandin F2-alpha receptor (Homo sapiens, UniProt P43088); assay: Binding affinity to human FP receptor expressed in HEK293 cells; type: cell-based
[7] = target: Prostaglandin E2 receptor EP2 subtype (Homo sapiens, UniProt P43116); assay: Binding affinity to human EP2 receptor expressed in HEK293 cells; type: cell-based
[8] = target: T3, Prostaglandin E2 receptor EP1 subtype (Homo sapiens, UniProt P34995); assay: Binding affinity to human EP1 receptor expressed in HEK293 cells; type: cell-based
T3 sequence (P34995 whole entry): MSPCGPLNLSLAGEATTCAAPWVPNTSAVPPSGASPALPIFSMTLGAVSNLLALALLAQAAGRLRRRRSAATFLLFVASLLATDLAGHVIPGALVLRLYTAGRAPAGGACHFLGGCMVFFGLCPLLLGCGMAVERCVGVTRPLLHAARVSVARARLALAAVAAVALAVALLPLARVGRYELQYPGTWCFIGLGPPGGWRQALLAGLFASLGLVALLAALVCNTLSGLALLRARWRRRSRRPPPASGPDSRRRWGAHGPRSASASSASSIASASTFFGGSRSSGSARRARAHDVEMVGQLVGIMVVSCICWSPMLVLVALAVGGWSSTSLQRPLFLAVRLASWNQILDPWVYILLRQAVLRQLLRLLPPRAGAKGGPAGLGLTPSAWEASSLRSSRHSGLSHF

[9] = target: T1, Prostaglandin D2 receptor; assay: Activity at human DP receptor in platelet rich plasma assessed as inhibition of PGD2-induced cAMP accumulation; type: functional
[10] = target: T4, Thromboxane A2 receptor (Homo sapiens, UniProt P21731); assay: Binding affinity to human TP receptor expressed in HEK293 cells; type: cell-based
T4 sequence (P21731 whole entry): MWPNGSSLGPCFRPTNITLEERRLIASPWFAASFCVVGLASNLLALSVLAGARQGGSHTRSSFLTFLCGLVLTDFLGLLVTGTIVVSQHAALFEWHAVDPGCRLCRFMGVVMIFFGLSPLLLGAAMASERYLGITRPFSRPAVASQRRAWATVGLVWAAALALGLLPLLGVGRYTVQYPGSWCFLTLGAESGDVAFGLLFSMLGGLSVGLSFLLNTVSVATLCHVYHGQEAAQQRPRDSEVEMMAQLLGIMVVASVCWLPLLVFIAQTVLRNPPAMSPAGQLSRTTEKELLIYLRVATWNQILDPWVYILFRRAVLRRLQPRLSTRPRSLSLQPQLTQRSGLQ

[11] = target: Prostaglandin E2 receptor EP4 subtype (Homo sapiens, UniProt P35408); assay: Binding affinity to human EP4 receptor expressed in HEK293 cells; type: cell-based
[12] = Activity at human TP receptor in platelet rich plasma assessed as inhibition […]-induced platelet aggregation
[13] = Cmax in Sprague-Dawley rat biliary fluid by bile duct cannulation study at 5 mg/kg, iv; type: ADME, organism-based; design: dose 5 mg/kg, route intravenous
[14] = Cmax in Sprague-Dawley rat after 6 hrs at 10 mg/kg, po; type: ADME, organism-based; design: dose 10 mg/kg, route oral; details: Sprague-Dawley, in vivo
[15] = Tmax in Sprague-Dawley rat biliary fluid by bile duct cannulation study at 5 mg/kg, iv; type: ADME, organism-based; design: dose 5 mg/kg, route intravenous
[16] = Plasma clearance in Sprague-Dawley rat at 10 mg/kg, po and 5 mg/kg, iv; type: ADME, organism-based; design: unit not given here
[17] = Volume of distribution in Sprague-Dawley rat at 10 mg/kg, po and 5 mg/kg, iv; type: ADME, organism-based; details: in vivo
[18] = Plasma half life in Sprague-Dawley rat at 5 mg/kg, iv; type: ADME, organism-based; design: dose 5 mg/kg, route intravenous
[19] = Cmax in Sprague-Dawley rat at 10 mg/kg, po; type: ADME, organism-based; design: dose 10 mg/kg, route oral; details: in vivo
[20] = Bioavailability in Sprague-Dawley rat at 10 mg/kg, po and 5 mg/kg, iv; type: ADME, organism-based; details: in vivo
[21] = tested on: Liver microsomes; assay: Protein binding in rat liver microsomes in presence of NADPH after 1 hr at 10 uM; type: ADME, Microsome
[22] = tested on: Liver microsomes; assay: Covalent protein binding in human liver microsomes in presence of NADPH after 1 hr at 10 uM; type: ADME, Microsome
[23] = tested on: Hepatocyte; assay: Protein binding in human hepatocyte after 2 hrs at 10 uM; type: ADME, cell-based; details: hepatocytes
[24] = tested on: Hepatocyte; assay: Covalent protein binding in rat hepatocyte after 2 hrs at 10 uM; type: ADME, cell-based; details: hepatocytes
[25] = Plasma concentration in sheep allergic rhinitis model after 30 mins at 0.1 mg/kg, iv
[26] = Plasma concentration in sheep allergic rhinitis model after 30 mins at 0.03 mg/kg, iv

Prostaglandin E2 receptor EP2 subtype, sequence (P43116 whole entry): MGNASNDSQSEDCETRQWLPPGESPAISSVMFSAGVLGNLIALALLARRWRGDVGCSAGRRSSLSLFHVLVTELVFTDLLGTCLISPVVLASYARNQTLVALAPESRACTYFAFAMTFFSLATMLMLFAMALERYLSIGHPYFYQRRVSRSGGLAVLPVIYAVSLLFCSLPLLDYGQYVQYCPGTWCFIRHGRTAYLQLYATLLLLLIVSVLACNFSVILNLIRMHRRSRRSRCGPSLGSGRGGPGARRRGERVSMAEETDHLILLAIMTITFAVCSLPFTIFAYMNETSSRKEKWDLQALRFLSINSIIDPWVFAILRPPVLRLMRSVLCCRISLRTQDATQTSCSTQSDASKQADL
Prostacyclin receptor, sequence (P43119 whole entry): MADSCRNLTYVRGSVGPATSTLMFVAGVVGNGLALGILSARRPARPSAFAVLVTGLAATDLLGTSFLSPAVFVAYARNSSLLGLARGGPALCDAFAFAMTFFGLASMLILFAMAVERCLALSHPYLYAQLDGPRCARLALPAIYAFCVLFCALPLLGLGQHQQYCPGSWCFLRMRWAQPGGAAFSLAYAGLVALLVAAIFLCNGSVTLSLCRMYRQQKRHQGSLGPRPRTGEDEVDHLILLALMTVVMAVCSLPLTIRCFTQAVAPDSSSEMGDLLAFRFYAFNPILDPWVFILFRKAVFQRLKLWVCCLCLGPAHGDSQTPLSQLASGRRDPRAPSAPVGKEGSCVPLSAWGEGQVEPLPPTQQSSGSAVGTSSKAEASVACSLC
Prostaglandin E2 receptor EP4 subtype, sequence (P35408 whole entry): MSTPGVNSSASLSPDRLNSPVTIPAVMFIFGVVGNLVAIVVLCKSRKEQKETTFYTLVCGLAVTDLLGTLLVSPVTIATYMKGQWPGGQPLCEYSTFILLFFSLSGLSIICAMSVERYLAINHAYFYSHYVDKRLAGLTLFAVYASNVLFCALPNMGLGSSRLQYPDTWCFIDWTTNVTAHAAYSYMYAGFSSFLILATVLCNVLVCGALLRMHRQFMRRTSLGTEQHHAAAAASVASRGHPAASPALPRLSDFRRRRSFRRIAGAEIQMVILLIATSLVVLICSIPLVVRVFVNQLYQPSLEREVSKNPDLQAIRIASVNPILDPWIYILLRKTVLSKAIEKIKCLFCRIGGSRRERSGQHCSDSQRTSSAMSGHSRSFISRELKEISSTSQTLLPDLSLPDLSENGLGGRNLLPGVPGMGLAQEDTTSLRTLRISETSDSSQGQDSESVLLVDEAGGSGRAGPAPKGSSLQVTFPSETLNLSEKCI
Prostaglandin F2-alpha receptor, sequence (P43088 whole entry): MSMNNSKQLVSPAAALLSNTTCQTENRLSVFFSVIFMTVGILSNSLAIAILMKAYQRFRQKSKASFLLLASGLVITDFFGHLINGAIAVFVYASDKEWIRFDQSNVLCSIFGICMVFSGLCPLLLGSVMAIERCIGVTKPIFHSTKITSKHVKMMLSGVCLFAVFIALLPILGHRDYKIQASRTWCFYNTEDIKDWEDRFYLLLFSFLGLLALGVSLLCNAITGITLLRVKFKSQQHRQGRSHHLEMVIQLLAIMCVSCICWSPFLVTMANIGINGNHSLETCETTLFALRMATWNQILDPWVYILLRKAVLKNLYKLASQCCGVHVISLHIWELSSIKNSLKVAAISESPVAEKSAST

| Structure (SMILES) | remaining at 2 h, 50 µM [3] | Cmax [13] | Cmax [14] | Tmax [15] | clearance [16] | Vdss [17] | half-life [18] | Cmax [19] | bioavailability [20] | further results |
| --- | --- | --- | --- | --- | --- | --- | --- | --- | --- | --- |
| O=C(O)C[C@H]1CCc2c1n(Cc1ccc(Cl)cc1)c1c(Br)cc(F)cc21 | 42% |  |  |  |  |  |  |  |  | IC50 [1]: 0.26 nM (antagonist); Ki [2]: 1.5 nM (antagonist); Ki [4]: 400 nM (antagonist); Ki [5]: 470 nM (antagonist); pKi [6]: 4.85; Ki [7]: 410 nM (antagonist); pKi [8]: 5.36; IC50 [9]: 23 nM (antagonist); Ki [10]: 0.84 nM (antagonist); pKi [11]: 5.36 |
| CC(=O)c1cc(S(C)(=O)=O)cc2c3c(n(Cc4ccc(Cl)cc4)c12)[C@@H](CC(=O)O)CC3 | 93% |  |  |  |  |  |  |  |  | pIC50 [12]: 5.08 |
| CC(O)c1cc(S(C)(=O)=O)cc2c3c(n(Cc4ccc(Cl)cc4)c12)[C@@H](CC(=O)[O-])CC3.[Na+] (some centres undefined) |  | 3900 µM | 0.03 µM | 0 h | 50 | 0.8 Not_given | < 60 min | 0.29 µM | 8% |  |
| CC(=O)c1cc(F)cc2c3c(n(Cc4ccc(Cl)cc4)c12)[C@@H](CC(=O)[O-])CC3.[Na+] |  | 81 µM | 7.5 µM | 2.5 h | 1.9 | 0.5 Not_given | 240 min | 21 µM | 52% |  |
| CC(=O)c1cc(F)cc2c3c(n(Cc4ccc(Cl)cc4)c12)[C@@H](C[14C](=O)O)CC3 |  |  |  |  |  |  |  |  |  | Activity [21]: 290 pmol/mg/h; Activity [22]: 46 pmol/mg/h; Activity [23]: 16 pmol/mg/h; Activity [24]: 45 pmol/mg/h |
| CS(=O)(=O)c1cc(F)cc2c3c(n(Cc4ccc(Cl)cc4)c12)[C@@H](CC(=O)O)CC3 [LAROPIPRANT] | 32% |  |  |  |  |  |  |  |  | concentration at 0.5 h [25]: 670 nM; concentration at 0.5 h [26]: 91 nM |
| CS(=O)(=O)c1cc(F)cc2c3c(n(Cc4ccc(Cl)cc4)c12)[C@@H](CC(=O)[O-])CC3.[Na+] |  | 103 µM | 6.3 µM | 0.5 h | 2.4 | 0.5 Not_given | 420 min | 39 µM | 79% |  |
